Assay results as given in patent US20130212744A1, “METHOD OF REDUCING INSECT-VECTORED VIRAL INFECTIONS” (priority 2010, published 2013).
Where two headings read alike, the source gives them in different places.

Legend:
Assay type in all cases: in vivo
[1] = tested on: whitefly Bemisia tabaci nymphs; assay: Soil use (drench) field trial on tomato, efficacy on whitefly nymphs; conditions: for Emax at 100 g/ha: 100 g ai/ha; for Emax at 150 g/ha: 150 g ai/ha
Method: Two soil applied studies were carried out in Elhasanya, Egypt in 2009 on tomato plants with the main goal to measure efficacy on the whitefly Bemisia tabaci. The plot size was 4.8 m^2 and 6 replicates were used in the trial. […] The spray volume was at the first application 350 l/ha. The evaluation of this study was done counting the adult whiteflies (Bemisia tabaci) as well as the nymphs and the eggs in each plot. In addition to the direct whitefly effect, visual symptoms of the virus, mainly TYLCV (tomato yellow leaf curl virus) were evaluated also.

[2] = tested on: whitefly Bemisia tabaci nymphs; assay: Foliar use field trial on tomato, efficacy on whitefly nymphs; conditions: Bemisia tabaci, foliar
Method: (§1) Two studies were carried out in Elhasanya, Egypt in 2009 on tomato plants of the variety Fayrouz with the main goal to measure efficacy on the whitefly Bemisia tabaci. The plot size was 4.8 m^2 and 6 replicates were used in the trial. Products were applied 3 times on young tomato plants at BBCH stages 14, 17 and 51 at spray intervals between 12 and 19 days. The spray volume was at the first application 350 l/ha and later 500 l/ha. The evaluation of this study was done counting the adult whiteflies (Bemisia tabaci) as well as the nymphs and the eggs in each plot. In addition to the direct whitefly effect, visual symptoms of the virus, mainly TYLCV (tomato yellow leaf curl virus) were evaluated also.
(§2) ASM=Acibenzolar-S-methyl. WG 50=Actigard® 50WG, a water-dispersible granule with the active ingredient ASM CYNT=Cyantraniliprole. WG 40=Cyazypyr®, a water dispersable granule with the active ingredient CYNT. Results on whitefly adults. Trial 1

[3] = tested on: whitefly Bemisia tabaci adults; assay: Foliar use field trial on tomato, efficacy on whitefly adults; conditions: Bemisia tabaci, foliar
Method: as §1, §2

[4] = tested on: TYLCV (tomato yellow leaf curl virus); assay: Foliar use field trial on tomato, infected leaf area by TYLC virus
Method: as §1, §2
Evaluation of percentage of infected leaf area by TYLC virus (average of 45 plants evaluated per treatment) Trial 1

`CNC(=O)c1cc(C#N)cc(C)c1NC(=O)c1cc(Br)nn1-c1ncccc1Cl` [CYNT, 3-bromo-1-(3-chloro-2-pyridyl)-4′-cyano-2′-methyl-6′-(methylcarbamoyl)pyrazole-5-carboxanilide] was tested, and the Emax at 100 g/ha ([1]; 25DAA1, Trial 2) was 60%, the Emax at 100 g/ha ([1]; 30DAA1, Trial 2) was 34% and the Emax at 100 g/ha ([1]; 35DAA1, Trial 2) was 63%. For the same compound, the Emax at 100 g/ha ([1]; 40DAA2, Trial 2) was 52%, the Emax at 150 g/ha ([1]; 25DAA1, Trial 2) was 78% and the Emax at 150 g/ha ([1]; 30DAA1, Trial 2) was 79%. It also gave an Emax at 150 g/ha ([1]; 35DAA1, Trial 2) of 77%, an Emax at 150 g/ha ([1]; 40DAA2, Trial 2) of 61% and an Emax at 100 g/ha ([1]; 240 h, 10DAA, Trial 1) of 67%. For the same compound, the Emax at 150 g/ha ([1]; 240 h, 10DAA, Trial 1) was 69%, the Emax at 100 g/ha ([1]; 360 h, 15DAA, Trial 1) was 65% and the Emax at 150 g/ha ([1]; 360 h, 15DAA, Trial 1) was 84%. For the same compound, the Emax at 100 g/ha ([1]; 480 h, 20DAA, Trial 1) was 59%, the Emax at 150 g/ha ([1]; 480 h, 20DAA, Trial 1) was 84% and the Emax at 100 g/ha ([1]; 600 h, 25DAA, Trial 1) was 39%. For the same compound, the Emax at 150 g/ha ([1]; 600 h, 25DAA, Trial 1) was 77%, the Emax at 100 g/ha ([1]; 720 h, 30DAA, Trial 1) was 28% and the Emax at 150 g/ha ([1]; 720 h, 30DAA, Trial 1) was 74%. For the same compound, the Emax at 100 g/ha ([1]; 840 h, 35DAA, Trial 1) was 24%, the Emax at 150 g/ha ([1]; 840 h, 35DAA, Trial 1) was 70% and the Emax at 100 g/ha ([1]; 960 h, 40DAA, Trial 1) was 13%. It also gave an Emax at 150 g/ha ([1]; 960 h, 40DAA, Trial 1) of 64%, an Emax ([2]; 75 g ai/hl, 5DAA2, Trial 1, read-out: % Efficacy on Nymphs) of 27% and an Emax ([2]; 75 g ai/hl, 5DAA2, Trial 2, read-out: % Efficacy on Nymphs) of 27%. The Emax ([2]; 75 g ai/hl, 5DAA3, Trial 1, read-out: % Efficacy on Nymphs) was 72%, the Emax ([2]; 75 g ai/hl, 5DAA3, Trial 2, read-out: % Efficacy on Nymphs) was 72% and the Emax ([2]; 75 g ai/hl, 10DAA2, Trial 1, read-out: % Efficacy on Nymphs) was 48%. The Emax ([2]; 75 g ai/hl, 10DAA2, Trial 2, read-out: % Efficacy on Nymphs) was 48%, the Emax ([2]; 75 g ai/hl, 10DAA3, Trial 1, read-out: % Efficacy on Nymphs) was 65% and the Emax ([2]; 75 g ai/hl, 10DAA3, Trial 2, read-out: % Efficacy on Nymphs) was 65%. For the same compound, the Emax ([2]; 75 g ai/hl, 15DAA3, Trial 1, read-out: % Efficacy on Nymphs) was 60%, the Emax ([2]; 75 g ai/hl, 15DAA3, Trial 2, read-out: % Efficacy on Nymphs) was 60% and the Emax ([2]; 75 g ai/hl, 20DAA3, Trial 1, read-out: % Efficacy on Nymphs) was 48%. The Emax ([2]; 75 g ai/hl, 20DAA3, Trial 2, read-out: % Efficacy on Nymphs) was 48%, the Emax ([2]; 75 g ai/hl, Avg, Trial 1, read-out: % Efficacy on Nymphs Avg % C) was 53% and the Emax ([2]; 100 g ai/hl, 5DAA2, Trial 1, read-out: % Efficacy on Nymphs) was 73%. For the same compound, the Emax ([2]; 100 g ai/hl, 5DAA2, Trial 2, read-out: % Efficacy on Nymphs) was 73%, the Emax ([2]; 100 g ai/hl, 5DAA3, Trial 1, read-out: % Efficacy on Nymphs) was 84% and the Emax ([2]; 100 g ai/hl, 5DAA3, Trial 2, read-out: % Efficacy on Nymphs) was 84%. The Emax ([2]; 100 g ai/hl, 10DAA2, Trial 1, read-out: % Efficacy on Nymphs) was 73%, the Emax ([2]; 100 g ai/hl, 10DAA2, Trial 2, read-out: % Efficacy on Nymphs) was 73% and the Emax ([2]; 100 g ai/hl, 10DAA3, Trial 1, read-out: % Efficacy on Nymphs) was 78%. The Emax ([2]; 100 g ai/hl, 10DAA3, Trial 2, read-out: % Efficacy on Nymphs) was 78%, the Emax ([2]; 100 g ai/hl, 15DAA3, Trial 1, read-out: % Efficacy on Nymphs) was 68% and the Emax ([2]; 100 g ai/hl, 15DAA3, Trial 2, read-out: % Efficacy on Nymphs) was 68%. The Emax ([2]; 100 g ai/hl, 20DAA3, Trial 1, read-out: % Efficacy on Nymphs) was 56%, the Emax ([2]; 100 g ai/hl, 20DAA3, Trial 2, read-out: % Efficacy on Nymphs) was 56% and the Emax ([2]; 100 g ai/hl, Avg, Trial 1, read-out: % Efficacy on Nymphs Avg % C) was 72%. The Emax ([3]; 75 g ai/hl, 5DAA1, Trial 1, read-out: % Efficacy on Adults) was 82%, the Emax ([3]; 75 g ai/hl, 5DAA1, Trial 2, read-out: % Efficacy on Adults) was 82% and the Emax ([3]; 75 g ai/hl, 5DAA2, Trial 1, read-out: % Efficacy on Adults) was 69%. The Emax ([3]; 75 g ai/hl, 5DAA2, Trial 2, read-out: % Efficacy on Adults) was 69%, the Emax ([3]; 75 g ai/hl, 5DAA3, Trial 1, read-out: % Efficacy on Adults) was 83% and the Emax ([3]; 75 g ai/hl, 5DAA3, Trial 2, read-out: % Efficacy on Adults) was 83%. The Emax ([3]; 75 g ai/hl, 10DAA1, Trial 1, read-out: % Efficacy on Adults) was 49%, the Emax ([3]; 75 g ai/hl, 10DAA1, Trial 2, read-out: % Efficacy on Adults) was 49% and the Emax ([3]; 75 g ai/hl, 10DAA2, Trial 1, read-out: % Efficacy on Adults) was 67%. The Emax ([3]; 75 g ai/hl, 10DAA2, Trial 2, read-out: % Efficacy on Adults) was 67%, the Emax ([3]; 75 g ai/hl, 10DAA3, Trial 1, read-out: % Efficacy on Adults) was 79% and the Emax ([3]; 75 g ai/hl, 10DAA3, Trial 2, read-out: % Efficacy on Adults) was 79%. For the same compound, the Emax ([3]; 75 g ai/hl, 15DAA3, Trial 1, read-out: % Efficacy on Adults) was 71%, the Emax ([3]; 75 g ai/hl, 15DAA3, Trial 2, read-out: % Efficacy on Adults) was 71% and the Emax ([3]; 75 g ai/hl, 20DAA3, Trial 1, read-out: % Efficacy on Adults) was 62%. For the same compound, the Emax ([3]; 75 g ai/hl, 20DAA3, Trial 2, read-out: % Efficacy on Adults) was 62%, the Emax ([3]; 75 g ai/hl, Avg, Trial 1, read-out: % Efficacy on Adults Avg % C) was 70% and the Emax ([3]; 100 g ai/hl, 5DAA1, Trial 1, read-out: % Efficacy on Adults) was 89%. It also gave an Emax ([3]; 100 g ai/hl, 5DAA1, Trial 2, read-out: % Efficacy on Adults) of 89%, an Emax ([3]; 100 g ai/hl, 5DAA2, Trial 1, read-out: % Efficacy on Adults) of 89% and an Emax ([3]; 100 g ai/hl, 5DAA2, Trial 2, read-out: % Efficacy on Adults) of 89%. It also gave an Emax ([3]; 100 g ai/hl, 5DAA3, Trial 1, read-out: % Efficacy on Adults) of 90%, an Emax ([3]; 100 g ai/hl, 5DAA3, Trial 2, read-out: % Efficacy on Adults) of 90% and an Emax ([3]; 100 g ai/hl, 10DAA1, Trial 1, read-out: % Efficacy on Adults) of 74%. For the same compound, the Emax ([3]; 100 g ai/hl, 10DAA1, Trial 2, read-out: % Efficacy on Adults) was 74%, the Emax ([3]; 100 g ai/hl, 10DAA2, Trial 1, read-out: % Efficacy on Adults) was 86% and the Emax ([3]; 100 g ai/hl, 10DAA2, Trial 2, read-out: % Efficacy on Adults) was 86%. It also gave an Emax ([3]; 100 g ai/hl, 10DAA3, Trial 1, read-out: % Efficacy on Adults) of 86%, an Emax ([3]; 100 g ai/hl, 10DAA3, Trial 2, read-out: % Efficacy on Adults) of 86% and an Emax ([3]; 100 g ai/hl, 15DAA3, Trial 1, read-out: % Efficacy on Adults) of 80%. For the same compound, the Emax ([3]; 100 g ai/hl, 15DAA3, Trial 2, read-out: % Efficacy on Adults) was 80%, the Emax ([3]; 100 g ai/hl, 20DAA3, Trial 1, read-out: % Efficacy on Adults) was 68% and the Emax ([3]; 100 g ai/hl, 20DAA3, Trial 2, read-out: % Efficacy on Adults) was 68%. For the same compound, the Emax ([3]; 100 g ai/hl, Avg, Trial 1, read-out: % Efficacy on Adults Avg % C) was 83%, the “% Infected Surface area with virus / plant” value ([4]; 75 g ai/hl, 5DAA2, Trial 1) was 0.0% and the “% Infected Surface area with virus / plant” value ([4]; 75 g ai/hl, 5DAA2, Trial 2) was 0.0%. For the same compound, the “% Infected Surface area with virus / plant” value ([4]; 75 g ai/hl, 5DAA3, Trial 1) was 3.0%, the “% Infected Surface area with virus / plant” value ([4]; 75 g ai/hl, 5DAA3, Trial 2) was 3.0% and the “% Infected Surface area with virus / plant” value ([4]; 75 g ai/hl, 10DAA3, Trial 1) was 5.1%. For the same compound, the “% Infected Surface area with virus / plant” value ([4]; 75 g ai/hl, 10DAA3, Trial 2) was 5.1%, the “% Infected Surface area with virus / plant” value ([4]; 75 g ai/hl, 15DAA3, Trial 1) was 7.1% and the “% Infected Surface area with virus / plant” value ([4]; 75 g ai/hl, 15DAA3, Trial 2) was 7.1%. For the same compound, the “% Infected Surface area with virus / plant” value ([4]; 75 g ai/hl, 20DAA3, Trial 1) was 9.8%, the “% Infected Surface area with virus / plant” value ([4]; 75 g ai/hl, 20DAA3, Trial 2) was 9.8% and the “% Infected Surface area with virus / plant” value ([4]; 75 g ai/hl, 24DAA3, Trial 1) was 10.3%. The “% Infected Surface area with virus / plant” value ([4]; 75 g ai/hl, 24DAA3, Trial 2) was 10.3%, the “% Infected Surface area with virus / plant” value ([4]; 100 g ai/hl, 5DAA2, Trial 1) was 0.8% and the “% Infected Surface area with virus / plant” value ([4]; 100 g ai/hl, 5DAA2, Trial 2) was 0.8%. For the same compound, the “% Infected Surface area with virus / plant” value ([4]; 100 g ai/hl, 5DAA3, Trial 1) was 1.9%, the “% Infected Surface area with virus / plant” value ([4]; 100 g ai/hl, 5DAA3, Trial 2) was 1.9% and the “% Infected Surface area with virus / plant” value ([4]; 100 g ai/hl, 10DAA3, Trial 1) was 3.1%. For the same compound, the “% Infected Surface area with virus / plant” value ([4]; 100 g ai/hl, 10DAA3, Trial 2) was 3.1%, the “% Infected Surface area with virus / plant” value ([4]; 100 g ai/hl, 15DAA3, Trial 1) was 3.9% and the “% Infected Surface area with virus / plant” value ([4]; 100 g ai/hl, 15DAA3, Trial 2) was 3.9%. The “% Infected Surface area with virus / plant” value ([4]; 100 g ai/hl, 20DAA3, Trial 1) was 4.5%, the “% Infected Surface area with virus / plant” value ([4]; 100 g ai/hl, 20DAA3, Trial 2) was 4.5% and the “% Infected Surface area with virus / plant” value ([4]; 100 g ai/hl, 24DAA3, Trial 1) was 5.3%. The “% Infected Surface area with virus / plant” value ([4]; 100 g ai/hl, 24DAA3, Trial 2) was 5.3%.
